The source of these data is PMC7018972, “Novel and selective inactivators of Triosephosphate isomerase with anti-trematode activity” (Scientific Reports, 2020).

A word on the IC50: it is the midpoint of a concentration-inhibition curve. Lower therefore signals inhibition by little substance. What is called inhibition is the relative decrease from the control value, in per cent.

For series [1], the system named is murine macrophages and bovine sperm. The experiment in a line: Non-specific toxicity against mammalian cells. To be noted: for Toxicity mammalian cells: selectivity index parasite vs. mammalian cells, fixed doses 25 and 100 µM. Type of series: cell-based. The method, then:
As a proof of concept, we tested the best FhTIM inactivators against F. hepatica and S. mansoni parasites. Also, we use compound 191 as a non-inhibitor which has a closely related structure to that of compound 187. Some compounds were able to kill 100% of the newly excysted juvenile (NEJ) F. hepatica within 4 to 48 h (Table 2 and Fig. 2). […] In parallel, these compounds were assayed to characterize their non-specific toxicity against murine macrophages and bovine sperm. Both models are recommended by FDA as an in vitro prediction of toxicology.
J774.1 murine macrophage cells (ATCC, USA) were grown in DMEM culture milieu containing 4 mM glutamine and supplemented with 10% FCS[20]. The cells were seeded in a 96-well plate (5×10^4 cells in 200 µL culture medium) and incubated at 37 °C in a 5% CO2 atmosphere for 48 h, to allow cell adhesion prior to drug testing. Afterward, cells were exposed for 48 h to the compounds (25–400 µM) or the vehicle for control (0.4% DMSO), and additional controls (cells in medium) were used in each test. Cell viability was then assessed by measuring the mitochondria-dependent reduction of MTT (3-(4,5-dimethylthiazol-2-yl)-2,5-diphenyltetrazolium bromide) to formazan. For this purpose, MTT in sterile PBS (0.2% glucose), pH 7.4, was added to the macrophages to achieve a final concentration of 0.1 mg/mL, and the cells were incubated at 37 °C for 3 h. After removing the medium, formazan crystals were dissolved in 180 µL of DMSO and 20 µL of MTT buffer (0.1 M glycine, 0.1 M NaCl, 0.5 mM EDTA, pH 10.5), and the absorbance at 560 nm was measured. The IC50 was defined as the drug concentration at which 50% of the cells were viable, relative to the control (no drug added), and was determined by analysis using OriginLab8.5® sigmoidal regression (% of viable cells vs. the logarithm of the compound concentration). Tests were performed in triplicate.
Semen samples were obtained from a healthy fertile Hereford bull and kept frozen in 0.5 mL straws (extended in Andromed, Minitube, Germany[47]) under liquid nitrogen until use. The semen used belonged to a single freezing batch that was obtained during a regular collection schedule with an artificial vagina. Samples from three straws were thawed and a sperm pool was prepared in PBS at a concentration of 40 million spermatozoa per mL, then 50 μL of this sperm suspension was carefully mixed with 50 μL of compounds diluted to 100, 50, 25, 12.5 and 6.25 μM or with 1% DMSO in control experiments. Each condition was assayed by duplicate in 96-well plates and controls were assayed by triplicate. Plates were incubated at 37 °C for 1 h with moderate shaking. The motility analysis was carried out using a CASA (Computer Assisted Semen Analyzer) system Androvision (Minitube, Tiefenbach, Germany) with an Olympus BX 41 microscope (Olympus, Japan) equipped with a warm-stage at 37 °C. Each sample (10 μL) was placed onto a Makler Counting Chamber (depth 10 μm, Sefi-Medical Instruments, Israel) and the following parameters were evaluated: percentage of total motile spermatozoa (motility >5 μm/s) and velocity curved line (VCL, >24 μm/s). At least 400 spermatozoa were analyzed from each sample from at least four microscope fields.

The subject of series [2] is newly excysted juvenile (NEJ) F. hepatica. The experiment in a line: In vitro NEJ treatment. Type of series: cell-based, Fasciola hepatica. To be noted: for IC50: Fasciola hepatica, NEJ.
Series [3] deals with T1, human (HsTIM) (Homo sapiens, UniProt P60174).
T1 construct: made in house; host or cells: Escherichia coli
As to the kind of experiment: Selectivity assay, inhibition of HsTIM. To be noted: read-out: inhibition against HsTIM. Type of series: biochemical. The method, then:
Expression and purification of proteins: FhTIM, RabbitTIM and HsTIM were expressed in Escherichia coli and purified as described in the literature[31],[37]. After purification, the enzyme, dissolved in 100 mM triethanolamine, 10 mM EDTA and 1 mM dithiothreitol (pH 8), was precipitated with ammonium sulfate (75% saturation) and stored at 4 °C. Before use, extensive dialysis against 100 mM triethanolamine/10 mM EDTA (pH 7.4) was performed. Protein concentration was determined by absorbance at 280 nm for FhTIM (ε = 33,460 M^−1cm^−1) and for RabbitTIM and HsTIM (ε = 33,460 M^−1cm^−1). Enzymatic activity was determined following the conversion of glyceraldehydes-3-phosphate into dihydroxyacetone phosphate in a coupled enzyme assay. The decrease in absorbance at 340 nm was followed in a multiplate reader VarioskanTM Flash Multimode Reader (Thermo ScientificTM, Waltham, MA, USA) at 38 °C. The reaction mixture (1 mL, pH 7.4) contained 100 mM triethanolamine, 10 mM EDTA, 0.2 mM NADH, 1 mM glyceraldehydes-3-phosphate and 0.9 units of α-glycerol phosphate dehydrogenase. The reaction was initiated by the addition of 5 ng/mL of the TIM of interest. For the inhibition studies, TIM was incubated at a concentration of 5 mg/mL in a buffer containing 100 mM triethanolamine, 10 mM EDTA, pH 7.4 and 10% of DMSO at 37 °C for 1 h. The mixture also contained the compounds, dissolved in DMSO, at the indicated concentrations. After 1 h, 10 µL were withdrawn and added to a final volume of 100 µL of the reaction mixture for the activity assay. The inhibition assay was performed in a 96-well microplate. None of the molecules tested here affected the activity of α-glycerol phosphate dehydrogenase, the enzyme used in the coupled assay. The IC50 value was taken as the concentration of drug needed to reduce the enzymatic activity to 50% by analysis using OriginLab8.5® sigmoidal regression (% of enzymatic activity vs. the logarithm of the compound concentration). The experiments were performed in triplicate in two independent experiments.

T1 sequence (P60174 whole entry): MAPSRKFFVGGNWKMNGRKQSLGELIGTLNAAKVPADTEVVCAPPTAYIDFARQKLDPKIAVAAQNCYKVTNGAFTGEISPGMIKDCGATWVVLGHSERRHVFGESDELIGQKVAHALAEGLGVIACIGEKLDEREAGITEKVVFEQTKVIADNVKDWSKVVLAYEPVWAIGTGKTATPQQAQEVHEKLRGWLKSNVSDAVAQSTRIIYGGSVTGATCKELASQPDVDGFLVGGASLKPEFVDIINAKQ

For the molecule `Cc1ccc(-c2nsc(S(=O)(=O)c3ccc(C)cc3)n2)cc1` [Compound 187], the “toxicity to mammalian cells in words” value in series [1] (herein) is listed as “non-toxic”. The Toxicity mammalian cells result in series [1] was “NT (when the IC50 vs. the parasite was at least 10 times less than the IC50 vs. the mammalian cells, we considered these compounds as non-toxic (NT))”. Also, the midpoint of inhibition in series [2] (incubation time 4 h), the IC50, lay at 3000 ± 500 nM. Moreover, the inhibition at 100 µM in series [3] was under 20%.

`CSc1nc2cc(Cl)c(Oc3cccc(Cl)c3Cl)cc2[nH]1` [Compound 1278, triclabendazole, reference compound]: the Toxicity mammalian cells entry in series [1] was “NT (when the IC50 vs. the parasite was at least 10 times less than the IC50 vs. the mammalian cells, we considered these compounds as non-toxic (NT))”. In addition, in series [2] (incubation time 72 h), the IC50 is over 50000 nM. For the same molecule, in series [2] (both forms, at 48 h), the “concentration of effect against juvenile and adult forms of F. hepatica” value was “more than 50 µM”. Moreover, the inhibition at 100 µM in series [3] was under 20%.
